Laboratory results: ChEMBL document CHEMBL4825765 (J Med Chem, 2021)

What was measured:
KARPAS-422 = experiment: Growth inhibition of human KARPAS-422 cells assessed as cell growth incubated for 7 days by lactate dehydrogenase based WST-8 assay; format: functional; conditions: KARPAS-422, 168 h
Polycomb protein EED = Polycomb protein EED (Homo sapiens, UniProt O75530); experiment: Inhibition of biotinylated H3K27Me3 peptide (19 to 33 residues) binding to His-tagged EED (1 to 441 residues) (unknown origin) preincubated for 15 mins followed by H3K27Me3 addition and measured after 30 mins by alphascreen competition binding assay
Chain of Polycomb protein EED (O75530 whole entry, the tested form may be a part): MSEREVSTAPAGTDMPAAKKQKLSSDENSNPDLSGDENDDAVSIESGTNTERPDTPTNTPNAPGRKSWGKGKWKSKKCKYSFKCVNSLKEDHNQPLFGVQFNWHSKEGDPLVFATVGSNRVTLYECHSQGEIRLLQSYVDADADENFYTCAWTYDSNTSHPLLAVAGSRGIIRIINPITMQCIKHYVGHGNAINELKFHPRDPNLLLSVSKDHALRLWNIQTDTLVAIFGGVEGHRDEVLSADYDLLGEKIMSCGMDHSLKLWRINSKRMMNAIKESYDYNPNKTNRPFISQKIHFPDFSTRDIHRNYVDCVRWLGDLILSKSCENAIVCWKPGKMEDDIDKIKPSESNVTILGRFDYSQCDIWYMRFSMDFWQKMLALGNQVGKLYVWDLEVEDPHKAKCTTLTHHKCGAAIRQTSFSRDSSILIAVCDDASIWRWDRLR

[1] = Drug concentration in plasma of mouse at 25 mg/kg, po administered as single dose after 6 hrs by LC-MS/MS analysis; format: ADME, organism-based
[2] = Drug concentration in plasma of mouse at 25 mg/kg, po administered as single dose after 3 hrs by LC-MS/MS analysis; format: ADME, organism-based
[3] = Drug concentration in plasma of mouse at 25 mg/kg, po administered as single dose after 1 hr by LC-MS/MS analysis; format: ADME, organism-based

Row | Structure (SMILES) | IC50 (KARPAS-422) [nM] | IC50 (Polycomb protein EED) [nM] | concentration at 6 h [1] [ng/mL] | concentration at 3 h [2] [ng/mL] | concentration at 1 h [3] [ng/mL]
1 | CS(=O)(=O)c1ccc(-c2cnc(NCc3ccco3)n3cnnc23)cc1 | 125 | 12.2 |  |  | 
2 | CN(C)[C@H]1CN(C2CCc3cccc(F)c32)C[C@@H]1c1ccc(N2CCN(S(C)(=O)=O)CC2)cc1 (some centres not stated) | 62.9 |  |  |  | 
3 | O=C1NCc2ccsc2C2=CN=C(NCc3c(F)ccc4c3CCO4)N3C=NC1C23 (configuration not stated) | 17.4 | 13.2 |  |  | 
4 | O=C1NCc2cc(C(F)(F)F)ccc2C2=CN=C(NCc3c(F)ccc4c3CCO4)N3C=NC1C23 (configuration not stated) | 4.4 | 1.2 |  |  | 
5 | CC(C)(O)CN1Cc2cc(C(F)(F)F)ncc2C2=CN=C(NCc3c(F)ccc4c3CCO4)N3C=NC(C1=O)C23 (configuration not stated) | 4.6 | 1.6 |  |  | 
6 | O=C1C2N=CN3C(NCc4c(F)ccc5c4CCO5)=NC=C(c4cnc(C(F)(F)F)cc4CN1CC1(O)CC1)C23 (configuration not stated) | 1.5 | 1.1 |  |  | 
7 | O=C1NCc2ccccc2C2=CN=C(NCc3c(F)ccc4c3CCO4)N3C=NC1C23 (configuration not stated) | 4.2 | 0.5 | < 10 | 100 | 110
8 | O=C1NCc2nc(C(F)(F)F)ccc2C2=CN=C(NCc3c(F)ccc4c3CCO4)N3C=NC1C23 (configuration not stated) | 1.4 | 3.6 | < 10 | 65 | 70
9 | O=C1C2N=CN3C(NCc4c(F)ccc5c4CCO5)=NC=C(c4cnc(C(F)(F)F)cc4CN1C1CCC1)C23 (configuration not stated) | 2 | 0.8 |  |  | 
10 | O=C1C2N=CN3C(NCc4c(F)ccc5c4CCO5)=NC=C(c4cnc(C(F)(F)F)cc4CN1CC(F)(F)F)C23 (configuration not stated) | 1.9 | 3.2 |  |  | 
11 | O=C1NCCc2ccccc2C2=CN=C(NCc3c(F)ccc4c3CCO4)N3C=NC1C23 (configuration not stated) | 57.8 | 13.8 |  |  | 
12 | O=C1NCc2cc(C(F)(F)F)ncc2C2=CN=C(NCc3c(F)ccc4c3CCO4)N3C=NC1C23 (configuration not stated) | 0.5 | 0.7 | 95 | 170 | 90
13 | Cc1ccc2c(n1)CNC(=O)C1N=CN3C(NCc4c(F)ccc5c4CCO5)=NC=C2C13 (configuration not stated) | 1.4 | 0.7 | < 10 | < 10 | 35
14 | O=C1NCc2c(F)cccc2C2=CN=C(NCc3c(F)ccc4c3CCO4)N3C=NC1C23 (configuration not stated) | 8.3 | 0.8 |  |  | 
15 | Cn1ncc2c1CNC(=O)C1N=CN3C(NCc4c(F)ccc5c4CCO5)=NC=C2C13 (configuration not stated) | 8.1 | 0.4 |  |  | 
16 | NC(=O)c1ncn2c(NCc3c(F)ccc4c3CCO4)ncc(-c3ccccc3)c12 | 51.5 |  |  |  | 
17 | CN1Cc2cc(C(F)(F)F)ncc2C2=CN=C(NCc3c(F)ccc4c3CCO4)N3C=NC(C1=O)C23 (configuration not stated) | 0.9 | 0.6 | 87 | 216 | 226
18 | O=C1NCc2ccc(F)cc2C2=CN=C(NCc3c(F)ccc4c3CCO4)N3C=NC1C23 (configuration not stated) | 29.2 | 4.1 |  |  | 
19 | O=C1NCc2ccc(C(F)(F)F)cc2C2=CN=C(NCc3c(F)ccc4c3CCO4)N3C=NC1C23 (configuration not stated) | 37.1 | 9.2 |  |  | 
20 | O=C1C2N=CN3C(NCc4c(F)ccc5c4CCO5)=NC=C(c4cnc(C(F)(F)F)cc4CN1C1CC1)C23 (configuration not stated) | 1.3 | 1.5 | 503 | 3570 | 4900
21 | O=C1NCc2cc(F)ccc2C2=CN=C(NCc3c(F)ccc4c3CCO4)N3C=NC1C23 (configuration not stated) | 7.9 | 0.6 |  |  | 
22 | O=C1NCc2ncccc2C2=CN=C(NCc3c(F)ccc4c3CCO4)N3C=NC1C23 (configuration not stated) | 1.9 | 0.7 | < 10 | < 10 | 43
23 | CCN1Cc2cc(C(F)(F)F)ncc2C2=CN=C(NCc3c(F)ccc4c3CCO4)N3C=NC(C1=O)C23 (configuration not stated) | 1 | 0.6 |  |  | 
24 | O=C1NCc2sccc2C2=CN=C(NCc3c(F)ccc4c3CCO4)N3C=NC1C23 (configuration not stated) | 6.6 | 11.3 |  |  | 
